Where a name gives a salt, the structure may show the parent alone. Read-outs that look alike come from different tables or passages of the source.
Tests used:
[1] = Picotamide salt stability, degradation determined by HPLC
Method: If a spontaneous crystallization occurs after the salt formation, the solid is isolated by filtration.
Column: Phenomenex Hypersil C18-BDS, 4.6×150 mm, 5 μm, flow 1 ml/min, 25° C., detection at 254 nm. Ammonium acetate buffer 10 mM, pH 9, containing 15% methanol. After 17 min, the percentage of methanol is increased to 80%. The sample is dissolved in methanol/water 1:1.
Salts were formed in THF.

[2] = Picotamide stability under acidic conditions (HPLC content); format: physicochemical; settings: hydrochloric acid 1 M, three days
Method: The sample is dissolved in methanol/water 1:1.
Picotamide is dissolved in hydrochloric acid 1 M and stored at room temperature and 50° C. for three days.

[3] = man, after oral administration; cited from earlier work

Work on `CC(=O)O` [Acetate] yielded a Degradation [1] of 0.6%.
For `COc1ccc(C(=O)NCc2cccnc2)cc1C(=O)NCc1cccnc1` [Picotamide, N,N′-bis-(3-picolyl)-4-methoxyisophthalamide], the picotamide content ([2]; 50° C.) was 98.1% and the picotamide content ([2]; room temperature) was 99.2%.
In the case of `COc1ccc(C(=O)NCc2cccnc2)cc1C(=O)NCc1cccnc1` [anhydrous picotamide], the “time needed to reach the maximum inhibitory effect” value [3] is listed as 8 h.
`Br` [hydrobromide] gave a Degradation [1] of 35%.
In the case of `COc1ccc(C(=O)NCc2cccnc2)cc1C(=O)NCc1cccnc1` [hydrochloride (anhydrous)], the Degradation [1] is reported as 0.0%.
Compound `COc1ccc(C(=O)NCc2cccnc2)cc1C(=O)NCc1cccnc1` [hydrochloride] has a Degradation [1] of 0.6%.
`O=S(=O)(O)O` [sulfate] gave a Degradation [1] of 0.1%.
Compound citrate has a Degradation ([1]; salts formed in THF, HPLC) of 0.2%.
With fumarate the Degradation ([1]; salts formed in THF, HPLC) was 6.7%.
maleate gave a Degradation ([1]; salts formed in THF, HPLC) of 11.5%.
With oxalate the Degradation ([1]; salts formed in THF, HPLC) was 0.4%.
In the case of tartrate [reference compound], the Degradation ([1]; salts formed in THF, HPLC) is reported as 0.1%.
